Values of other authors as cited in patent US20110142757A1, “NOVEL COMPOUNDS AND THEIR USES IN DIAGNOSIS” (the University of Sydney, priority 2008, published 2011).

Test system: activated microglia
Conditions: quinolinic acid-injected rat striatum

## CCC(C)N(C)C(=O)c1cc2ccccc2c(-c2ccccc2Cl)n1 (stereo not shown) [PK11195]
  Microglial activation and neuronal death: reduces microglial activation and neuronal death
